Source: ChEMBL document CHEMBL1148963, “Four new eudesmanes from Caragana intermedia and their biological activities” (J Nat Prod, 2004)
Values after ≈ are worked out from the molar mass of the structure shown.

Legend:
[1] = tested on: Human immunodeficiency virus 1; experiment: Antiviral activity against HIV1 3B infected in human MT2 cells; format: functional, organism-based; details: Human immunodeficiency virus 1, 3B
Pyricularia oryzae = experiment: Antimicrobial activity against Pyricularia oryzae P-2b; format: functional
C2C12 = experiment: Increase in glucose consumption in mouse C2C12 cells assessed as improved glucose transformation; format: functional, cell-based

## C=C1CC[C@@H](O)[C@]2(C)CC[C@H](C(C)C)[C@@H](O)[C@H]12
[1]
  IC50: 10 µg/mL (≈ 42 µM)

## C=C1CC[C@@H](O)[C@]2(C)CC[C@@H](C(C)C)C[C@@]12O
Pyricularia oryzae
  MIC: 20 µg/mL (≈ 83.9 µM)
C2C12
  IC50: 10.7 µg/mL (≈ 44.9 µM)

## C=C1CC[C@@H](O)[C@]2(C)CC[C@](O)(C(C)C)C[C@@H]12
Pyricularia oryzae
  MIC: 16 µg/mL (≈ 67.1 µM)

## C=C1CC[C@@H](O)[C@]2(C)CC[C@@](O)(C(C)C)C[C@@H]12
Pyricularia oryzae
  MIC: 12 µg/mL (≈ 50.3 µM)
